Results taken from PubChem BioAssay AID1259407 (Chemical Carcinogenesis Research Information System (CCRIS), 2018).
Activity calls are given as the source filed them. How the calls were made is not given here.

System: CCRIS mutagenicity, Ames/micronucleus/aberration tests
Experiment: CCRIS mutagenicity studies
Settings: Test System: AMES SALMONELLA TYPHIMURIUM

SMILES: Nc1ccc2cc3ccccc3cc2c1
- mutagenic call (Strain/Indicator: NM2000, Metabolic Activation: RAT, LIVER, S-9, AROCLOR 1254, Method: PREINCUBATION): active; positive
- mutagenic call (Strain/Indicator: NM2009, Metabolic Activation: RAT, LIVER, S-9, AROCLOR 1254, Method: PREINCUBATION): active; positive
- mutagenic call (Strain/Indicator: TA97, Metabolic Activation: NONE, Method: STANDARD PLATE): inactive; negative
- mutagenic call (Strain/Indicator: TA97, Metabolic Activation: RAT, LIVER, S-9, AROCLOR 1254, Method: STANDARD PLATE): active; positive
- mutagenic call (Strain/Indicator: TA97A, Metabolic Activation: RAT, LIVER, S-9, AROCLOR 1254, Method: STANDARD PLATE): active; positive
- mutagenic call (Strain/Indicator: TA98 (1,8-DNP6), Metabolic Activation: RAT LIVER, CYTOSOL, AROCLOR 1254, Method: STANDARD PLATE): active; positive
- mutagenic call (Strain/Indicator: TA98 (1,8-DNP6), Metabolic Activation: RAT LIVER, MICROSOMES, AROCLOR 1254, Method: STANDARD PLATE): active; positive
- mutagenic call (Strain/Indicator: TA98, Metabolic Activation: FERRET, LIVER, CYTOSOL, Method: STANDARD PLATE): inactive; negative
- mutagenic call (Strain/Indicator: TA98, Metabolic Activation: FERRET, LIVER, MICROSOMES, Method: STANDARD PLATE): active; positive
- mutagenic call (Strain/Indicator: TA98, Metabolic Activation: HAMSTER, LIVER, CYTOSOL, Method: STANDARD PLATE): inactive; negative
- mutagenic call (Strain/Indicator: TA98, Metabolic Activation: HAMSTER, LIVER, MICROSOMES, Method: STANDARD PLATE): active; positive
- mutagenic call (Strain/Indicator: TA98, Metabolic Activation: HUMAN, LIVER, CYTOSOL, Method: STANDARD PLATE): active; positive
- mutagenic call (Strain/Indicator: TA98, Metabolic Activation: HUMAN, RED BLOOD CELL, CYTOSOL, Method: PREINCUBATION): active; positive
- mutagenic call (Strain/Indicator: TA98, Metabolic Activation: NONE, Method: SPIRAL ASSAY): inactive; negative
- mutagenic call (Strain/Indicator: TA98, Metabolic Activation: PIG, LIVER, CYTOSOL, Method: STANDARD PLATE): inactive; negative
- mutagenic call (Strain/Indicator: TA98, Metabolic Activation: PIG, LIVER, MICROSOMES, Method: STANDARD PLATE): active; positive
- mutagenic call (Strain/Indicator: TA98, Metabolic Activation: RAT LIVER, CYTOSOL, AROCLOR 1254, Method: STANDARD PLATE): active; positive
- mutagenic call (Strain/Indicator: TA98, Metabolic Activation: RAT LIVER, MICROSOMES, AROCLOR 1254, Method: STANDARD PLATE): active; positive
- mutagenic call (Strain/Indicator: TA98, Metabolic Activation: RAT, LIVER, CYTOSOL, Method: STANDARD PLATE): inactive; negative
- mutagenic call (Strain/Indicator: TA98, Metabolic Activation: RAT, LIVER, MICROSOMES, Method: STANDARD PLATE): active; positive
- mutagenic call (Strain/Indicator: TA98, Metabolic Activation: RAT, LIVER, S-9, AROCLOR 1254 (0.5, 1, 2 OR 4%), Method: STANDARD PLATE): active; positive
- mutagenic call (Strain/Indicator: TA98, Metabolic Activation: RAT, LIVER, S-9, AROCLOR 1254, Method: SPIRAL ASSAY): active; positive
- mutagenic call (Strain/Indicator: TA98, Metabolic Activation: RAT, LIVER, S-9, AROCLOR 1254 OR PHENOBARBITOL, Method: STANDARD PLATE): active; positive
- mutagenic call (Strain/Indicator: TA98, Metabolic Activation: RAT, LIVER, S-9, PHENOBARBITAL, Method: STANDARD PLATE): active; positive
- mutagenic call (Strain/Indicator: TA100, Metabolic Activation: MOUSE, LIVER, MICROSOMES, BENZO[E]PYRENE AND TCDD, Method: STANDARD PLATE): active; positive
- mutagenic call (Strain/Indicator: TA100, Metabolic Activation: NONE, Method: SPIRAL ASSAY): inactive; negative
- mutagenic call (Strain/Indicator: TA100, Metabolic Activation: RAT, LIVER, PARENCHYMAL CELLS (FRESHLY ISOLATED OR STORED FOR 1 D OR CRYOPRESERVED), Method: PREINCUBATION): active; positive
- mutagenic call (Strain/Indicator: TA100, Metabolic Activation: RAT, LIVER, S-9, AROCLOR 1254 (2%), Method: STANDARD PLATE): active; positive
- mutagenic call (Strain/Indicator: TA100, Metabolic Activation: RAT, LIVER, S-9, AROCLOR 1254, Method: SPIRAL ASSAY): active; positive
- mutagenic call (Strain/Indicator: TA100, Metabolic Activation: RAT, LIVER, S-9, AROCLOR 1254, Method: STANDARD PLATE): active; positive
